Test results published in the supplement of paper PMC10307832.

Legend:
Experiment in all cases: relative viability (nuclei count vs DMSO), 5 days (fraction); higher = more cells survive
Kobe2602 + Olaparib = compound: C1=CC(=CC=C1NC(=S)NNC2=C(C=C(C=C2[N+](=O)[O-])C(F)(F)F)[N+](=O)[O-])F [Kobe2602] + O=C(c1cc(Cc2n[nH]c(=O)c3ccccc23)ccc1F)N1CCN(C(=O)C2CC2)CC1 [Olaparib] (partner 8 µM)
Summary of the method: (§1)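 Nuclei were stained with Hoechst during a one-step fixation (final 0.05% Triton X-100, 1% formaldehyde, 1 ug/ml Hoechst) carried out 5 days after dosing, then counted on 4× images. The cells, lung cancer lines in 1536-well plates, had been dosed by pin tool the day after seeding with one drug alone or a fixed anchor-drug dose plus five library-drug doses (not always all listed) in √10 steps. Relative viability is the nuclei count in treated wells divided by that in vehicle wells, and each value is the median of duplicate plates.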

[1] = compound: COc1cc2nccc(Oc3ccc(NC(=O)C4(C(=O)Nc5ccc(F)cc5)CC4)cc3)c2cc1OC [Cabozantinib] + CS(=O)(=O)N1CCN(Cc2cc3nc(-c4cccc5[nH]ncc45)nc(N4CCOCC4)c3s2)CC1 [Pictilisib] (partner 1 µM)
Summary of the method: as §1

Cabozantinib + Dasatinib = compound: COc1cc2nccc(Oc3ccc(NC(=O)C4(C(=O)Nc5ccc(F)cc5)CC4)cc3)c2cc1OC [Cabozantinib] + Cc1nc(Nc2ncc(C(=O)Nc3c(C)cccc3Cl)s2)cc(N2CCN(CCO)CC2)n1 [Dasatinib] (partner 0.075 µM)
Summary of the method: as §1

Cabozantinib + AZD7762 = compound: COc1cc2nccc(Oc3ccc(NC(=O)C4(C(=O)Nc5ccc(F)cc5)CC4)cc3)c2cc1OC [Cabozantinib] + NC(=O)Nc1cc(-c2cccc(F)c2)sc1C(=O)N[C@H]1CCCNC1 [AZD7762] (partner 0.2 µM)
Summary of the method: as §1

| Cell Line | relative viability (Kobe2602 + Olaparib; first compound 0.2 µM) | relative viability (Kobe2602 + Olaparib; first compound 0.6325 µM) | relative viability (Kobe2602 + Olaparib; first compound 2 µM) | relative viability (Kobe2602 + Olaparib; first compound 6.325 µM) | relative viability (Kobe2602 + Olaparib; first compound 20 µM) | relative viability ([1]; first compound 0.02 µM) | relative viability ([1]; first compound 0.06325 µM) | relative viability ([1]; first compound 0.2 µM) | relative viability ([1]; first compound 0.6325 µM) | relative viability ([1]; first compound 2 µM) | relative viability (Cabozantinib + Dasatinib; first compound 0.02 µM) | relative viability (Cabozantinib + Dasatinib; first compound 0.06325 µM) | relative viability (Cabozantinib + Dasatinib; first compound 0.2 µM) | relative viability (Cabozantinib + Dasatinib; first compound 0.6325 µM) | relative viability (Cabozantinib + Dasatinib; first compound 2 µM) | relative viability (Cabozantinib + AZD7762; first compound 0.02 µM) | relative viability (Cabozantinib + AZD7762; first compound 0.06325 µM) | relative viability (Cabozantinib + AZD7762; first compound 0.2 µM) | relative viability (Cabozantinib + AZD7762; first compound 0.6325 µM) | relative viability (Cabozantinib + AZD7762; first compound 2 µM) |
| --- | --- | --- | --- | --- | --- | --- | --- | --- | --- | --- | --- | --- | --- | --- | --- | --- | --- | --- | --- | --- |
| HCC-366 | 0.368 | 0.345 | 0.32 | 0.352 | 0.365 | 0.0953 | 0.105 | 0.158 | 0.0782 | 0.113 | 0.43 | 0.664 | 0.536 | 0.584 | 0.628 | 0.34 | 0.358 | 0.21 | 0.209 | 0.275 |
| HCC-827 | 0.681 | 0.678 | 0.683 | 0.664 | 0.725 | 1.08 | 0.991 |  | 0.907 | 0.816 | 0.327 | 0.31 |  | 0.262 | 0.242 | 0.189 | 0.268 |  | 0.225 | 0.189 |
| HOP-62 | 0.512 | 0.523 | 0.476 | 0.316 | 0.472 | 0.959 | 0.707 | 1.08 | 0.57 | 0.683 | 0.603 | 0.703 | 0.529 | 0.579 | 0.41 | 0.629 | 0.798 | 0.633 | 0.441 | 0.428 |
| IA-LM | 0.851 | 0.718 | 0.773 | 0.894 | 0.862 | 0.471 | 0.381 | 0.356 | 0.39 | 0.412 |  |  |  |  |  |  |  |  |  |  |
| LC-2-ad | 0.693 | 0.683 | 0.708 | 0.736 | 0.682 | 0.31 | 0.402 | 0.279 | 0.319 | 0.177 |  | 0.641 | 0.492 | 0.295 | 0.283 | 0.766 | 0.98 | 0.79 | 0.902 | 0.866 |
| NCI-H520 | 0.333 | 0.38 | 0.381 | 0.353 | 0.333 | 0.318 | 0.291 | 0.28 | 0.312 | 0.376 | 0.18 | 0.204 | 0.215 | 0.201 | 0.199 |  |  |  |  |  |
| NCI-H522 | 0.66 | 0.662 | 0.646 | 0.641 | 0.598 |  |  |  |  |  | 0.726 | 0.898 | 0.93 | 0.846 | 1.04 | 0.704 | 0.767 | 0.819 | 0.999 | 0.865 |
| NCI-H661 | 0.714 | 0.695 | 0.697 | 0.754 | 0.802 | 0.301 | 0.476 | 0.391 | 0.394 | 0.331 | 0.732 | 0.838 | 0.724 | 0.767 | 0.772 |  |  |  |  |  |
| NCI-H1299 | 0.996 | 1.02 | 0.949 | 1.02 | 0.985 | 0.961 | 0.924 | 0.953 | 0.876 | 0.733 |  |  |  |  |  |  |  |  |  |  |
| NCI-H1563 |  |  |  |  |  | 0.572 | 0.607 | 0.637 | 0.621 | 0.66 | 0.386 | 0.424 | 0.43 | 0.498 | 0.452 |  |  |  |  |  |
| NCI-H1623 |  |  |  |  |  |  |  |  |  |  | 0.483 | 0.606 | 0.486 | 0.486 | 0.568 |  |  |  |  |  |
| NCI-H1648 | 0.62 | 0.929 | 0.493 | 0.772 | 0.872 |  |  |  |  |  |  |  |  |  |  | 0.792 | 0.737 |  | 0.721 | 0.73 |
| NCI-H1650 | 0.844 | 0.891 | 0.819 | 0.868 | 0.8 | 0.515 | 0.709 | 0.606 | 0.536 | 0.532 | 0.261 | 0.292 | 0.294 | 0.303 | 0.225 |  |  |  |  |  |
| NCI-H1703 | 0.454 | 0.364 | 0.4 | 0.483 | 0.431 | 0.214 | 0.229 | 0.249 | 0.226 | 0.18 |  |  |  |  |  | 0.118 | 0.129 | 0.133 | 0.136 | 0.139 |
| NCI-H2009 | 0.685 | 0.701 | 0.735 | 0.714 | 0.736 | 0.979 | 0.882 | 0.882 | 0.754 | 0.959 | 0.289 | 0.298 | 0.267 | 0.217 | 0.201 |  |  |  |  |  |
| NCI-H2023 | 0.496 | 0.566 | 0.511 | 0.446 | 0.166 | 0.189 | 0.228 | 0.22 | 0.206 | 0.2 | 0.45 | 0.531 | 0.369 | 0.311 | 0.248 |  |  |  |  |  |
| NCI-H2228 | 0.738 | 0.576 | 0.689 | 0.593 | 0.629 | 0.539 | 0.544 | 0.551 | 0.455 | 0.331 | 0.531 | 0.624 | 0.471 | 0.472 | 0.55 |  |  |  |  |  |
| NCI-H2342 | 0.415 | 0.406 | 0.435 | 0.493 | 0.434 |  |  |  |  |  | 0.291 | 0.386 | 0.308 | 0.316 | 0.311 | 0.401 | 0.69 | 0.624 | 0.535 | 0.415 |
| SK-LU-1 | 0.463 | 0.471 | 0.494 | 0.457 | 0.523 |  | 0.857 | 0.519 | 0.481 | 0.529 | 0.138 | 0.164 | 0.174 | 0.155 | 0.156 |  |  |  |  |  |
| SK-MES-1 | 0.674 | 0.643 | 0.635 | 0.551 | 0.281 | 0.357 | 0.391 | 0.335 | 0.386 | 0.322 | 0.335 | 0.518 | 0.293 | 0.432 | 0.242 |  |  |  |  |  |
| SW 900 | 0.914 | 0.981 | 0.679 | 0.969 | 0.976 |  |  |  |  |  | 0.541 | 0.373 | 0.541 | 0.404 | 0.23 | 0.604 | 0.761 | 0.559 | 0.441 | 0.448 |
| SW 1573 | 0.477 | 0.416 | 0.306 | 0.466 | 0.152 | 0.483 | 0.573 | 0.543 | 0.411 | 0.449 | 0.438 | 0.738 | 0.453 | 0.624 | 0.456 |  |  |  |  |  |
